Data as given in US10689381B2 (priority 2017, dated 2020).
Where two headings read alike, the source gives them in different places.

Assays:
L1210 = assay: cells; assay type: cell-based, mouse
Summary of the method: (§1)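 Compound exposure ran 72 h at six concentrations (0–1000 nM or 0–10000 nM, duplicate) on cells plated at 30,000 cells/mL in 10% FBS DMEM. A closing 37 °C incubation took 15 min (HCT116) or 5 min (L1210).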

HCT116 = assay: cells; assay type: cell-based, human; conditions: read-out: IC50 HCT116
Summary of the method: as §1

| Structure (SMILES) | IC50 (L1210; Table 6) [nM] | IC50 (HCT116; Table 6) [nM] | IC50 (L1210; Table 7, C20′ sulfonamides) [nM] | IC50 (HCT116; Table 7, C20′ sulfonamides) [nM] |
| --- | --- | --- | --- | --- |
| CCC1(NC(=O)c2ccc3c(c2)ncn3C)CC2CN(CCc3c([nH]c4ccccc34)C(C(=O)OC)(c3cc4c(cc3OC)N(C)C3C(O)(C(=O)OC)C(OC(C)=O)C5(CC)C=CCN6CCC43C65)C2)C1 (stereo not shown) [Compound 166] | 0.7 | 0.6 |  |  |
| CC[C@]1(NC(=O)c2ccc3ncoc3c2)C[C@H]2CN(CCc3c([nH]c4ccccc34)[C@@](C(=O)OC)(c3cc4c(cc3OC)N(C)[C@H]3[C@@](O)(C(=O)OC)[C@H](OC(C)=O)[C@]5(CC)C=CCN6CC[C@]43[C@@H]65)C2)C1 [Compound 167] | 0.6 | 0.6 |  |  |
| CCC1(NC(=O)c2ccc3ocnc3c2)CC2CN(CCc3c([nH]c4ccccc34)C(C(=O)OC)(c3cc4c(cc3OC)N(C)C3C(O)(C(=O)OC)C(OC(C)=O)C5(CC)C=CCN6CCC43C65)C2)C1 (stereo not shown) [Compound 168] | 5.4 | 5.1 |  |  |
| CC[C@]1(NC(=O)c2nc3ccccc3o2)C[C@H]2CN(CCc3c([nH]c4ccccc34)[C@@](C(=O)OC)(c3cc4c(cc3OC)N(C)[C@H]3[C@@](O)(C(=O)OC)[C@H](OC(C)=O)[C@]5(CC)C=CCN6CC[C@]43[C@@H]65)C2)C1 [Compound 169] | 60 | 60 |  |  |
| CC[C@]1(NC(=O)c2ccc3ncsc3c2)C[C@H]2CN(CCc3c([nH]c4ccccc34)[C@@](C(=O)OC)(c3cc4c(cc3OC)N(C)[C@H]3[C@@](O)(C(=O)OC)[C@H](OC(C)=O)[C@]5(CC)C=CCN6CC[C@]43[C@@H]65)C2)C1 [Compound 170] | 0.5 | 0.6 |  |  |
| CC[C@]1(NC(=O)c2ccc3scnc3c2)C[C@H]2CN(CCc3c([nH]c4ccccc34)[C@@](C(=O)OC)(c3cc4c(cc3OC)N(C)[C@H]3[C@@](O)(C(=O)OC)[C@H](OC(C)=O)[C@]5(CC)C=CCN6CC[C@]43[C@@H]65)C2)C1 [Compound 171] | 0.6 | 0.7 |  |  |
| CCC1(NC(=O)c2nc3ccccc3s2)CC2CN(CCc3c([nH]c4ccccc34)C(C(=O)OC)(c3cc4c(cc3OC)N(C)C3C(O)(C(=O)OC)C(OC(C)=O)C5(CC)C=CCN6CCC43C65)C2)C1 (stereo not shown) [Compound 172] | 180 | 80 |  |  |
| CCC1(NC(=O)c2ccc3c(c2)OCO3)CC2CN(CCc3c([nH]c4ccccc34)C(C(=O)OC)(c3cc4c(cc3OC)N(C)C3C(O)(C(=O)OC)C(OC(C)=O)C5(CC)C=CCN6CCC43C65)C2)C1 (stereo not shown) [Compound 174] | 0.6 | 0.8 |  |  |
| CCC1(NC(=O)c2ccc3c(c2)OCCO3)CC2CN(CCc3c([nH]c4ccccc34)C(C(=O)OC)(c3cc4c(cc3OC)N(C)C3C(O)(C(=O)OC)C(OC(C)=O)C5(CC)C=CCN6CCC43C65)C2)C1 (stereo not shown) [Compound 175] | 0.6 | 0.5 |  |  |
| CCC1(NC(=O)c2ccc3c(c2)OCCN3C)CC2CN(CCc3c([nH]c4ccccc34)C(C(=O)OC)(c3cc4c(cc3OC)N(C)C3C(O)(C(=O)OC)C(OC(C)=O)C5(CC)C=CCN6CCC43C65)C2)C1 (stereo not shown) [Compound 176] | 0.3 | 0.3 |  |  |
| CCC1(NC(=O)c2ccc3c(c2)CCN3)CC2CN(CCc3c([nH]c4ccccc34)C(C(=O)OC)(c3cc4c(cc3OC)N(C)C3C(O)(C(=O)OC)C(OC(C)=O)C5(CC)C=CCN6CCC43C65)C2)C1 (stereo not shown) [Compound 177] | 5.1 | 6.7 |  |  |
| CC[C@]1(NC(=O)c2ccc3c(c2)CCN3C(=O)OC(C)(C)C)C[C@H]2CN(CCc3c([nH]c4ccccc34)[C@@](C(=O)OC)(c3cc4c(cc3OC)N(C)[C@H]3[C@@](O)(C(=O)OC)[C@H](OC(C)=O)[C@]5(CC)C=CCN6CC[C@]43[C@@H]65)C2)C1 [Compound 178] | 35 | 15 |  |  |
| CCC1(NS(=O)(=O)c2ccccc2)CC2CN(CCc3c([nH]c4ccccc34)C(C(=O)OC)(c3cc4c(cc3OC)N(C)C3C(O)(C(=O)OC)C(OC(C)=O)C5(CC)C=CCN6CCC43C65)C2)C1 (stereo not shown) [Compound 179] |  |  | 45 | 50 |
| CCC1(NS(=O)(=O)c2ccc(C)cc2)CC2CN(CCc3c([nH]c4ccccc34)C(C(=O)OC)(c3cc4c(cc3OC)N(C)C3C(O)(C(=O)OC)C(OC(C)=O)C5(CC)C=CCN6CCC43C65)C2)C1 (stereo not shown) [Compound 180] |  |  | 40 | 30 |
